Values joined by “and” are separate entries in the source; they are usually repeats but may differ in a detail not shown here. Equal entries are not always repeated. Toxic doses and inconclusive results are not listed. Rule for the calls: active = survival T/C of 150% or more; inactive = T/C below 125% in these data. Residues, ends and D or L forms follow the SMILES beside them.
Test system: BDF1 mice, P388 leukemia ip, median survival T/C
Test: NCI In Vivo Anticancer Drug Screen. Data for tumor model P388 Leukemia (intraperitoneal) in B6D2F1 (BDF1) mice
Details: endpoint: median survival time, higher = longer survival
Summary of the method: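 T/C = treated-group survival ÷ vehicle-control survival; tumour transplanted into mice before dosing.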

[1] = dose: 100.0 mg/kg/injection, schedule: Q01DX009 (ip), vehicle: saline with Tween-80
[2] = dose: 200.0 mg/kg/injection, schedule: Q01DX009 (ip), vehicle: saline with Tween-80
[3] = dose: 100.0 mg/kg/injection, schedule: Q04DX003 (ip), vehicle: saline with Tween-80
[4] = dose: 200.0 mg/kg/injection, schedule: Q04DX003 (ip), vehicle: saline with Tween-80
[5] = dose: 400.0 mg/kg/injection, schedule: Q04DX003 (ip), vehicle: saline with Tween-80
[6] = dose: 100.0 mg/kg/injection, schedule: Q04DX003 (ip), vehicle: saline
[7] = dose: 200.0 mg/kg/injection, schedule: Q04DX003 (ip), vehicle: saline
[8] = dose: 400.0 mg/kg/injection, schedule: Q01DX009 (ip), vehicle: saline with Tween-80
[9] = dose: 400.0 mg/kg/injection, schedule: Q04DX003 (ip), vehicle: saline
[10] = dose: 50.0 mg/kg/injection, schedule: Q01DX009 (ip), vehicle: saline with Tween-80
[11] = dose: 100.0 mg/kg/injection, schedule: Q04DX003 (ip), vehicle: Klucel (hydroxypropylcellulose) (HPC)
[12] = dose: 200.0 mg/kg/injection, schedule: Q04DX003 (ip), vehicle: Klucel (hydroxypropylcellulose) (HPC)
[13] = dose: 400.0 mg/kg/injection, schedule: Q04DX003 (ip), vehicle: Klucel (hydroxypropylcellulose) (HPC)
[14] = dose: 50.0 mg/kg/injection, schedule: Q01DX009 (ip), vehicle: saline
[15] = dose: 200.0 mg/kg/injection, schedule: Q01DX009 (ip), vehicle: saline
[16] = dose: 100.0 mg/kg/injection, schedule: Q01DX009 (ip), vehicle: saline

Measured: T/C

CCCCN(CCCC)CC(O)c1cc(Cl)cc2cccnc12 (stereo not drawn)
inactive: dose: 3.12 mg/kg/injection, schedule: Q01DX009 (ip), vehicle: saline with Tween-80 100 % of control | dose: 6.25 mg/kg/injection, schedule: Q01DX009 (ip), vehicle: saline with Tween-80 104 % of control | dose: 12.5 mg/kg/injection, schedule: Q01DX009 (ip), vehicle: saline with Tween-80 108 % of control | dose: 25.0 mg/kg/injection, schedule: Q01DX009 (ip), vehicle: Klucel (hydroxypropylcellulose) (HPC) 87 % of control and 92 % of control | dose: 25.0 mg/kg/injection, schedule: Q04DX003 (ip), vehicle: Klucel (hydroxypropylcellulose) (HPC) 108 % of control | dose: 50.0 mg/kg/injection, schedule: Q01DX009 (ip), vehicle: Klucel (hydroxypropylcellulose) (HPC) 100 % of control and 108 % of control | dose: 50.0 mg/kg/injection, schedule: Q04DX003 (ip), vehicle: Klucel (hydroxypropylcellulose) (HPC) 100 % of control

CC(C)C(N)C(=O)NC(Cc1ccc(O)cc1)C(=O)NC(C(=O)O)C(C)C (stereo not drawn) (H-Val-Tyr-Val-OH; configuration not given here)
inactive: dose: 50.0 mg/kg/injection, schedule: Q01DX005 (ip), vehicle: saline 89 % of control | dose: 100.0 mg/kg/injection, schedule: Q01DX005 (ip), vehicle: saline 97 % of control | dose: 200.0 mg/kg/injection, schedule: Q01DX005 (ip), vehicle: saline 92 % of control

Cc1cc(C)c(C)c(C(O)(C(=O)O)c2ccccc2)c1 (stereo not drawn)
inactive: [1] 87 % of control | [2] 104 % of control

Cc1ccc(CNc2ccc(F)cc2)cc1
inactive: dose: 100.0 mg/kg/injection, schedule: Q01DX009 (ip), vehicle: other 100 % of control | [3] 95 % of control | dose: 178.0 mg/kg/injection, schedule: Q01DX009 (ip), vehicle: other 100 % of control | dose: 200.0 mg/kg/injection, schedule: Q01DX009 (ip), vehicle: other 95 % of control | [4] 104 % of control | dose: 266.0 mg/kg/injection, schedule: Q01DX009 (ip), vehicle: other 109 % of control | dose: 400.0 mg/kg/injection, schedule: Q01DX009 (ip), vehicle: other 104 % of control | [5] 100 % of control

CC(=O)OC1CCC2(C)CCCC(O)C2(O)C1 (stereo not drawn)
inactive: [1] 103 % of control | [6] 110 % of control | [7] 90 % of control | [8] 103 % of control | [9] 110 % of control

CN(C)c1ccc(S(=O)(=O)c2ccc3nc(N)nc(N)c3c2)cc1
inactive: [10] 97 % of control | [1] 91 % of control | [2] 88 % of control

COc1ccc(C=C2c3ccccc3-c3ccccc32)cc1
inactive: dose: 100.0 mg/kg/injection, schedule: Q01DX001 (ip), vehicle: saline with Tween-80 100 % of control | dose: 200.0 mg/kg/injection, schedule: Q01DX001 (ip), vehicle: saline with Tween-80 95 % of control | dose: 400.0 mg/kg/injection, schedule: Q01DX001 (ip), vehicle: saline with Tween-80 100 % of control

COc1ccccc1OCC(C)=O
inactive: dose: 178.0 mg/kg/injection, schedule: Q04DX003 (ip), vehicle: saline with Tween-80 104 % of control | dose: 266.0 mg/kg/injection, schedule: Q04DX003 (ip), vehicle: saline with Tween-80 104 % of control | [5] 114 % of control | dose: 600.0 mg/kg/injection, schedule: Q04DX003 (ip), vehicle: saline with Tween-80 104 % of control

Cc1ccc(S(=O)(=O)OCC2C3C=CC(C3)C2COS(=O)(=O)c2ccc(C)cc2)cc1 (stereo not drawn)
inactive: dose: 100.0 mg/kg/injection, schedule: Q01DX009 (ip), vehicle: Klucel (hydroxypropylcellulose) (HPC) 86 % of control | [11] 86 % of control | dose: 200.0 mg/kg/injection, schedule: Q01DX009 (ip), vehicle: Klucel (hydroxypropylcellulose) (HPC) 104 % of control | [12] 90 % of control | dose: 400.0 mg/kg/injection, schedule: Q01DX009 (ip), vehicle: Klucel (hydroxypropylcellulose) (HPC) 100 % of control | [13] 90 % of control

Cc1cc(C)c(C)c(Br)c1C
inactive: [11] 95 % of control | [12] 100 % of control | [13] 100 % of control

COc1cc(CN2CCCN(Cc3cc(OC)c(OC)c(OC)c3)C2c2ccc(N(CCCl)CCCl)cc2C)cc(OC)c1OC
inactive: dose: 50.0 mg/kg/injection, schedule: Q04DX003 (ip), vehicle: saline 109 % of control | [6] 104 % of control | [7] 90 % of control | [9] 109 % of control

CC(C)=CCC/C(C)=C/CN1C(=O)c2ccccc2C1=O
inactive: [1] 92 % of control | [3] 87 % of control | [2] 92 % of control | [4] 96 % of control | [8] 108 % of control | [5] 94 % of control

C=C1C(=O)OC2C1CC/C(C)=C/CCC1(C)OC21 (stereo not drawn)
inactive: dose: 70.0 mg/kg/injection, schedule: Q01DX009 (ip), vehicle: Klucel (hydroxypropylcellulose) (HPC) 116 % of control

CC1CN(C(=O)Nc2ccc(Cl)cc2)CC(C)O1 (stereo not drawn)
inactive: dose: 75.0 mg/kg/injection, schedule: Q01DX009 (ip), vehicle: Klucel (hydroxypropylcellulose) (HPC) 110 % of control | dose: 150.0 mg/kg/injection, schedule: Q01DX009 (ip), vehicle: Klucel (hydroxypropylcellulose) (HPC) 110 % of control | dose: 300.0 mg/kg/injection, schedule: Q01DX009 (ip), vehicle: Klucel (hydroxypropylcellulose) (HPC) 120 % of control

COc1cc2c(cc1OC)C(=O)N(C)CC2
inactive: [14] 105 % of control | dose: 100.0 mg/kg/injection, schedule: Q01DX009 (ip), vehicle: water 97 % of control | [15] 119 % of control

O=C1Nc2ccc(Br)cc2C1=Nc1cccnc1
inactive: [10] 100 % of control | [1] 104 % of control | [2] 111 % of control | [8] 111 % of control

CC(=O)c1ccc[n+](C)c1
inactive: [16] 100 % of control | [15] 95 % of control

CCOC(=O)c1ccccn1
inactive: dose: 12.5 mg/kg/injection, schedule: Q01DX009 (ip), vehicle: saline 108 % of control | dose: 25.0 mg/kg/injection, schedule: Q01DX009 (ip), vehicle: saline with Tween-80 112 % of control | dose: 25.0 mg/kg/injection, schedule: Q01DX009 (ip), vehicle: saline 105 % of control | [10] 121 % of control | [14] 94 % of control | [1] 105 % of control | [16] 103 % of control | [2] 110 % of control

C1CCCC2(CCC1)OCCO2
inactive: dose: 50.0 mg/kg/injection, schedule: Q04DX003 (ip), vehicle: saline with Tween-80 94 % of control | [1] 109 % of control | [3] 100 % of control | [2] 100 % of control | [4] 115 % of control and 119 % of control | [8] 109 % of control | [5] 112 % of control and 120 % of control

C/C(CCCCl)=N/NC(N)=S
inactive: dose: 75.0 mg/kg/injection, schedule: Q01DX009 (ip), vehicle: saline 86 % of control | dose: 115.0 mg/kg/injection, schedule: Q01DX009 (ip), vehicle: saline 86 % of control

Cc1cc[n+](C)c2ccccc12
inactive: dose: 9.37 mg/kg/injection, schedule: Q04DX003 (ip), vehicle: saline 100 % of control | dose: 18.75 mg/kg/injection, schedule: Q04DX003 (ip), vehicle: saline 100 % of control

CCOc1ccn(CC(=O)c2ccc(Cl)s2)c(=O)n1
inactive: [10] 106 % of control | [1] 113 % of control | [2] 97 % of control | [8] 106 % of control

Cc1ccc(NC(=O)c2ccccc2Cl)cc1C
inactive: [3] 104 % of control | [4] 113 % of control | [5] 109 % of control

N=C(N)SCc1ccccc1
inactive: dose: 50.0 mg/kg/injection, schedule: Q01DX001 (ip), vehicle: saline 98 % of control

O=C(O)c1cc[c]([Hg][S]c2ncnc3nc[nH]c23)cc1
inactive: dose: 25.0 mg/kg/injection, schedule: Q01DX009 (ip), vehicle: suspension in saline 119 % of control

CCOC(=O)C/C(C)=N/NC(=O)C(=O)N/N=C(\C)CC(=O)OCC
inactive: dose: 75.0 mg/kg/injection, schedule: Q01DX009 (ip), vehicle: saline with Tween-80 113 % of control | dose: 150.0 mg/kg/injection, schedule: Q01DX009 (ip), vehicle: saline with Tween-80 96 % of control | dose: 300.0 mg/kg/injection, schedule: Q01DX009 (ip), vehicle: saline with Tween-80 96 % of control

Source: PubChem BioAssay AID328 (DTP/NCI, 2004)
